Experimental data reported in US20090170886A1 (Pfizer Inc, priority 2005, published 2009).

Target: T1, hAR (human androgen receptor, baculovirus/Sf9 generated extracts) (Homo sapiens, UniProt P10275)
T1 construct: made in house; host or cells: baculovirus/Sf9 insect cells (crude extract)
T1 sequence (P10275 1-920): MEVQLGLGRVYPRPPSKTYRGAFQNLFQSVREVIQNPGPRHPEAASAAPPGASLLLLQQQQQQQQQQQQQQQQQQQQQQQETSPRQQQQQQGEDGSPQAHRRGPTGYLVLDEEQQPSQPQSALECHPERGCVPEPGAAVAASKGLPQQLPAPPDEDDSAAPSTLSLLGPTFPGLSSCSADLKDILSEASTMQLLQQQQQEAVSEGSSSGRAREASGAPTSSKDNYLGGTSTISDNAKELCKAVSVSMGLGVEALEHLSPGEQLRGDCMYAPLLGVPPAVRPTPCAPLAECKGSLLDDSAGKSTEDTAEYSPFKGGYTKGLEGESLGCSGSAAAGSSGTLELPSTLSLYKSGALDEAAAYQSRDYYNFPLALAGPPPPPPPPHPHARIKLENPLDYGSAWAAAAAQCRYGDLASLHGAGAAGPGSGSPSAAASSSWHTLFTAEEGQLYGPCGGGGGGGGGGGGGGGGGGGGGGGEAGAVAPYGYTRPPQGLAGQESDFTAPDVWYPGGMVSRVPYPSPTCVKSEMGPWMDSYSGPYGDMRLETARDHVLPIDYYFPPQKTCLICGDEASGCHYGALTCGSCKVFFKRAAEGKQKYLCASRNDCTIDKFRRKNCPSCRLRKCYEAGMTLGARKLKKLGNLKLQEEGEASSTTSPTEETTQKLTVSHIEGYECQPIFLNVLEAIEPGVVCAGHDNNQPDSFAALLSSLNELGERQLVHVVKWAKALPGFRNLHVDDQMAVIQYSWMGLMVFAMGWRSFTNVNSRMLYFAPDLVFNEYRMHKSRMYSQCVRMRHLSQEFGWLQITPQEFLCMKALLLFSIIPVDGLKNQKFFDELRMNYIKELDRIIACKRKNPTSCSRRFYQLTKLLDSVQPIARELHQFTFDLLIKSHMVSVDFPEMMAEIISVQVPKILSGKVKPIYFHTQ
Assay: AR Binding Assay (competitive binding with 3H-DHT tracer)
Conditions: AR Binding IC50, hAR extract, 1 nM 3H-DHT, one hour at 4° C.; mean of multiple tests
Summary of the method: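 Compounds at decreasing concentrations were incubated with baculovirus/Sf9 hAR extract, hydroxylapatite and 1 nM ^3H-DHT for one hour at 4° C., then washed three times. The value is the compound concentration inhibiting half of maximum ^3H-DHT binding, reported as the mean of multiple tests.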

Structure (SMILES) | IC50 [nM]
CCCC(Oc1ccc(C#N)c(C(F)(F)F)c1)c1cccc(O)c1 (single isomer, unassigned; (+)) [Example 15, (+)4-[1-(3-Hydroxyphenyl)butoxy]-2-(trifluoromethyl)benzonitrile] | 20
CC(C)CC(Oc1ccc(C#N)c(C(F)(F)F)c1)c1cccnc1 (stereo not drawn) [Example 88, 4-(3-Methyl-1-pyridin-3-yl-butoxy)-2-trifluoromethyl-benzonitrile] | 218
CC(Oc1ccc(C#N)c(C(F)(F)F)c1)c1ccccc1 (racemic) [Example 1, 4-(1-Phenyl-ethoxy)-2-trifluoromethyl-benzonitrile] | 10
CC(Oc1ccc(C#N)c(C(F)(F)F)c1)c1cccc(O)c1 (single isomer, unassigned; (-)) [Example 9, (−)-4-[1-(3-Hydroxyphenyl)ethoxy]-2-(trifluoromethyl)benzonitrile] | 56
N#Cc1ccc(OCc2cccc(O)c2)cc1C(F)(F)F [Example 6, 4-[(3-Hydroxybenzyl)oxy]-2-(trifluoromethyl)benzonitrile] | 12
Cc1ccc(C(CC(C)C)Oc2ccc(C#N)c(C(F)(F)F)c2)cn1 (stereo not drawn) [Example 89, 4-[3-Methyl-1-(6-methyl-pyridin-3-yl)-butoxy]-2-trifluoromethyl-benzonitrile] | 137
C=CCC(Oc1ccc(C#N)c(C(F)(F)F)c1)c1cccc(O)c1 (single isomer, unassigned; (-)) [Example 19, (−)4-{[1-(3-Hydroxyphenyl)but-3-enyl]oxy}-2-(trifluoromethyl)benzonitrile] | 185
CCC(Oc1ccc(C#N)c(C(F)(F)F)c1)c1ccccn1 (stereo not drawn) [Example 79, 4-(1-Pyridin^−2-yl-propoxy)-2-trifluoromethyl-benzonitrile] | 148
CC(C)CC(Oc1ccc(C#N)c(C(F)(F)F)c1)c1cccc(O)c1 (single isomer, unassigned; (+)) [Example 21, (+)4-[1-(3-Hydroxyphenyl)-3-methylbutoxy]-2-(trifluoromethyl)benzonitrile] | 66
CCCC(Oc1ccc(C#N)c(C(F)(F)F)c1)c1cccc(O)c1 (racemic) [Example 14, 4-[1-(3-Hydroxyphenyl)butoxy]-2-(trifluoromethyl)benzonitrile] | 18

Same assay, conditions: hAR extract, 1 nM 3H-DHT, one hour at 4° C.; mean of multiple tests; read-out: AR Binding IC50

Structure (SMILES) | IC50 [nM]
COc1cccc(C(C)Oc2ccc(C#N)c(C(F)(F)F)c2)n1 (stereo not drawn) [Example 80, 4-[1-(6-Methoxy-pyridin-2-yl)-ethoxy]-2-trifluoromethyl-benzonitrile] | 120
CC(Oc1ccc(C#N)c(C(F)(F)F)c1)c1cncc(O)c1 (single isomer, unassigned; (+)) [Example 74, (+)4-[1-(5-Hydroxypyridin-3-yl)ethoxy]-2-(trifluoromethyl)benzonitrile] | 35
